In article PMC9323132, “Characterization of Two Dehydrogenases from Gluconobacter oxydans Involved in the Transformation of Patulin to Ascladiol” (Toxins, 2022):

Key:
GOX0716 = molecular target: T1, GOX0716 (Gluconobacter oxydans, UniProt Q5FT03); experiment: HPLC of E-ascladiol formation by recombinant E. coli cells; type: cell-based, recombinant Escherichia coli; details: 10 µg/mL patulin; 500 µM NADPH; 20 mM MES pH 5; 30 °C; 24 h
T1 construct: full-length in pET28a, whole E. coli LOBSTR-BL21 (DE3) cells; not purified; native N-terminus by primer MADHSI
T1 sequence (Q5FT03 entry or part of it): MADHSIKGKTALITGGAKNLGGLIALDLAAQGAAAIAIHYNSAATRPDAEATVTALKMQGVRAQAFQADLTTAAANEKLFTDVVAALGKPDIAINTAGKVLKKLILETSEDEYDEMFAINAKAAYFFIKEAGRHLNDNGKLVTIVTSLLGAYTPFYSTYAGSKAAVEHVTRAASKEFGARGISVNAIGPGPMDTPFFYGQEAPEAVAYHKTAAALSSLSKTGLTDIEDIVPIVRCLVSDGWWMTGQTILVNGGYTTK

GOX1462 = molecular target: T2, GOX1462 (Gluconobacter oxydans, UniProt Q5FQY5); experiment: as above; type: cell-based, Escherichia coli; details: 10 µg/mL patulin; 500 µM NADPH; 20 mM MES pH 5; 30 °C; 24 h
T2 construct: full-length in pET28a, whole E. coli LOBSTR-BL21 (DE3) cells; not purified (aggregated); native N-terminus by primer MQYRQLG
T2 sequence (Q5FQY5 entry or part of it): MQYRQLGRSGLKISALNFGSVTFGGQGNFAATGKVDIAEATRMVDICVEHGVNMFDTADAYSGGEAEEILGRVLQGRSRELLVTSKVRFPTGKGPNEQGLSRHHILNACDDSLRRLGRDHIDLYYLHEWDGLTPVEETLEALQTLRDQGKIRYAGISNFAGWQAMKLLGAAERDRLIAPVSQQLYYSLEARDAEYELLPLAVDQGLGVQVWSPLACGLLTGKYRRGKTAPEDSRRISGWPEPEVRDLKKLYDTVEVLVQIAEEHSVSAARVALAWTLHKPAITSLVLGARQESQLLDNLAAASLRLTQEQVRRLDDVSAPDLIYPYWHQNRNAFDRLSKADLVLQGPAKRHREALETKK

GOX0525 = molecular target: T3, GOX0525 (Gluconobacter oxydans, UniProt Q5FTJ3); experiment: NADPH oxidation at […] nm, Michaelis-Menten fit; type: biochemical; details: read-out: apparent KM; 250 µM NADPH; pH 6.0 (0.1 M Tris, 0.05 M MES, 0.05 M acetic acid); 25 °C
T3 construct: full-length, N-terminal His-tag (pET28a), E. coli LOBSTR-BL21 (DE3), Ni-NTA; about 29 kDa; native N-terminus by primer MTHRVAL
T3 sequence (Q5FTJ3 entry or part of it): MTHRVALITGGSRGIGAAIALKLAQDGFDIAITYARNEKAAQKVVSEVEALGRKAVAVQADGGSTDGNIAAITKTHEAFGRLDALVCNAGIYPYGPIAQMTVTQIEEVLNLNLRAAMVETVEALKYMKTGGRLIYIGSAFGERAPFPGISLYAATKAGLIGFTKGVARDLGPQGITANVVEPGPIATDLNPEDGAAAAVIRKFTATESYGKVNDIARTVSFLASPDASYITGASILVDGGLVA

GOX1899 = molecular target: T4, GOX1899 (Gluconobacter oxydans, UniProt Q5FPQ9); experiment: NADPH oxidation at […] nm, Michaelis-Menten fit; type: biochemical; details: read-out: apparent KM; 250 µM NADPH; pH 6.0 (0.1 M Tris, 0.05 M MES, 0.05 M acetic acid); 25 °C
T4 construct: full-length, N-terminal His-tag (pET28a), E. coli LOBSTR-BL21 (DE3), Ni-NTA; about 29 kDa; native N-terminus by primer MTTDNI
T4 sequence (Q5FPQ9 entry or part of it): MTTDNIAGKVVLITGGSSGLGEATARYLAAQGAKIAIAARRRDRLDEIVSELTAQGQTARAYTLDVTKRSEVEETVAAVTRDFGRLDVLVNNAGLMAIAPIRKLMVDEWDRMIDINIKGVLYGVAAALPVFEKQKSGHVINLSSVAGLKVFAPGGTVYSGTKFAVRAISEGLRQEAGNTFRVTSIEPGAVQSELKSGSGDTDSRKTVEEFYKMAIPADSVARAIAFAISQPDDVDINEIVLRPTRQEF

With `O=C1C=C2C(=CCOC2O)O1` (stereo not shown) [patulin, 4-hydroxy-4H-furo [3,2-c]pyran-2(6H)-one] the “HPLC of E-ascladiol formation by recombinant E. coli cells” value (GOX0716) was “capable of producing E-ascladiol were those containing GOX0525, GOX1899, GOX1462 and GOX0716”, the “HPLC of E-ascladiol formation by recombinant E. coli cells” value (GOX1462) was “capable of producing E-ascladiol were those containing GOX0525, GOX1899, GOX1462 and GOX0716” and the Km (GOX0525) was 8.64 ± 0.89 mM. It also gave a Km (GOX1899) of 7.26 ± 0.54 mM.
